This note sets out measurements from ChEMBL document CHEMBL1137458, “Discovery of novel and orally active NR2B-selective N-methyl-D-aspartate (NMDA) antagonists, pyridinol derivatives with reduced HERG binding affinity” (Bioorg Med Chem Lett, 2007).

The IC50 is the concentration that inhibits the measured activity by half. Low values mean greater potency, high ones weaker potency. For orientation: solubility means the dissolved amount per volume that the medium holds. A higher solubility goes with a readily soluble substance. Usually half-life stands for the time in which the quantity being followed falls by half. Usually bioavailability stands for dose-corrected exposure relative to a reference, in per cent. High values mean much systemic uptake, low ones little systemic uptake. As usually defined, the inhibition is the change of the read-out against control, counted positive when it falls.

The target in data set [1] is Glutamate receptor ionotropic, NMDA 2B (Rattus norvegicus, UniProt Q00960). As to the kind of experiment: Displacement of [3H]CP-101606 from NR2B in rat forebrain P2 membrane. The class given is cell membranes, Brain.
Data set [2] deals with Voltage-gated inwardly rectifying potassium channel KCNH2 (Homo sapiens, UniProt Q12809). As to the kind of experiment: Displacement of [3H]dofetilide from human HERG expressed in HEK293 cells. It is filed as cell-based. (Displacement assays read how much labelled ligand stays bound in the presence of the test substance.)
Data set [3] can be described thus: Solubility at pH 6.5. The following applies: buffer. The class given is physicochemical.
Data set [4] deals with Mus musculus. As to the kind of experiment: Antiallodynic activity in po dosed mouse partial sciatic nerve ligation model. It is filed as functional.
Data set [5] is described as follows: Metabolic stability assessed Half life in human liver microsomes. It is filed as ADME, Microsome. A general note: Microsomes from liver hold many membrane-bound enzymes, among them those of drug oxidation.
The nature of data set [6]: Bioavailability in mouse. It is filed as ADME, organism-based. The settings on record: in vivo.
In data set [7] the target is hERG (KCNH2) (Homo sapiens, UniProt Q12809). Nature of the data set: Inhibition of HERG current at 30 uM.

Values after ≈ are worked out from the molar mass of the structure shown. Bounds are passed on as bounds.

Chain of Voltage-gated inwardly rectifying potassium channel KCNH2 (Q12809 whole entry): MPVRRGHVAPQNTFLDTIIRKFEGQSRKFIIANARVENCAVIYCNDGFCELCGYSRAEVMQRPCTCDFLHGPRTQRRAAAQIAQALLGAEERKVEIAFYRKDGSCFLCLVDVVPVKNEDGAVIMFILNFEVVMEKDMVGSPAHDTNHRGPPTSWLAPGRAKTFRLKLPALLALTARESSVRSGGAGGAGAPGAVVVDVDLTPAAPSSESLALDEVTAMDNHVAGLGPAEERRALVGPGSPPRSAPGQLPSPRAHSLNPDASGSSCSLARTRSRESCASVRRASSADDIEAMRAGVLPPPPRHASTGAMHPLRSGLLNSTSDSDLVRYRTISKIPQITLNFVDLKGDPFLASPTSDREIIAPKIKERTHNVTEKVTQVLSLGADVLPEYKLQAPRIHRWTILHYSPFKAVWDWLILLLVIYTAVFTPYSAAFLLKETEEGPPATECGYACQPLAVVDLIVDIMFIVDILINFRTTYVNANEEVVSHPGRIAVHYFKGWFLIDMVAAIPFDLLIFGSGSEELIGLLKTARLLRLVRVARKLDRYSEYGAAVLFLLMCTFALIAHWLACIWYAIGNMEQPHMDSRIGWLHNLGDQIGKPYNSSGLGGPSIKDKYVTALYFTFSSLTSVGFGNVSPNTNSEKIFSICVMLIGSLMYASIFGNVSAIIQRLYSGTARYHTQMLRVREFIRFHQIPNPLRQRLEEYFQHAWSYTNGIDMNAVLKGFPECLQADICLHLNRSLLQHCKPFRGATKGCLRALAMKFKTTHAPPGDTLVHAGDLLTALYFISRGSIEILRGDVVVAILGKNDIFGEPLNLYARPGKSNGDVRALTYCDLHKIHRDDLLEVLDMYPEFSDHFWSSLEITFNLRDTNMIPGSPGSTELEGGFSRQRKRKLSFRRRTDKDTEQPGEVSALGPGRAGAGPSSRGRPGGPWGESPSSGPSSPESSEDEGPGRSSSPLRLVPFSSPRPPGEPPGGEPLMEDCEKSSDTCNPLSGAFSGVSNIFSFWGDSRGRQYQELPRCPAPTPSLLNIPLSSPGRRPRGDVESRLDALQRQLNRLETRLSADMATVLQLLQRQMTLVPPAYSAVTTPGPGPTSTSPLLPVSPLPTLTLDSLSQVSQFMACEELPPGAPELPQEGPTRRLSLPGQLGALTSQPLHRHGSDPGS
Chain of Glutamate receptor ionotropic, NMDA 2B (Q00960 whole entry): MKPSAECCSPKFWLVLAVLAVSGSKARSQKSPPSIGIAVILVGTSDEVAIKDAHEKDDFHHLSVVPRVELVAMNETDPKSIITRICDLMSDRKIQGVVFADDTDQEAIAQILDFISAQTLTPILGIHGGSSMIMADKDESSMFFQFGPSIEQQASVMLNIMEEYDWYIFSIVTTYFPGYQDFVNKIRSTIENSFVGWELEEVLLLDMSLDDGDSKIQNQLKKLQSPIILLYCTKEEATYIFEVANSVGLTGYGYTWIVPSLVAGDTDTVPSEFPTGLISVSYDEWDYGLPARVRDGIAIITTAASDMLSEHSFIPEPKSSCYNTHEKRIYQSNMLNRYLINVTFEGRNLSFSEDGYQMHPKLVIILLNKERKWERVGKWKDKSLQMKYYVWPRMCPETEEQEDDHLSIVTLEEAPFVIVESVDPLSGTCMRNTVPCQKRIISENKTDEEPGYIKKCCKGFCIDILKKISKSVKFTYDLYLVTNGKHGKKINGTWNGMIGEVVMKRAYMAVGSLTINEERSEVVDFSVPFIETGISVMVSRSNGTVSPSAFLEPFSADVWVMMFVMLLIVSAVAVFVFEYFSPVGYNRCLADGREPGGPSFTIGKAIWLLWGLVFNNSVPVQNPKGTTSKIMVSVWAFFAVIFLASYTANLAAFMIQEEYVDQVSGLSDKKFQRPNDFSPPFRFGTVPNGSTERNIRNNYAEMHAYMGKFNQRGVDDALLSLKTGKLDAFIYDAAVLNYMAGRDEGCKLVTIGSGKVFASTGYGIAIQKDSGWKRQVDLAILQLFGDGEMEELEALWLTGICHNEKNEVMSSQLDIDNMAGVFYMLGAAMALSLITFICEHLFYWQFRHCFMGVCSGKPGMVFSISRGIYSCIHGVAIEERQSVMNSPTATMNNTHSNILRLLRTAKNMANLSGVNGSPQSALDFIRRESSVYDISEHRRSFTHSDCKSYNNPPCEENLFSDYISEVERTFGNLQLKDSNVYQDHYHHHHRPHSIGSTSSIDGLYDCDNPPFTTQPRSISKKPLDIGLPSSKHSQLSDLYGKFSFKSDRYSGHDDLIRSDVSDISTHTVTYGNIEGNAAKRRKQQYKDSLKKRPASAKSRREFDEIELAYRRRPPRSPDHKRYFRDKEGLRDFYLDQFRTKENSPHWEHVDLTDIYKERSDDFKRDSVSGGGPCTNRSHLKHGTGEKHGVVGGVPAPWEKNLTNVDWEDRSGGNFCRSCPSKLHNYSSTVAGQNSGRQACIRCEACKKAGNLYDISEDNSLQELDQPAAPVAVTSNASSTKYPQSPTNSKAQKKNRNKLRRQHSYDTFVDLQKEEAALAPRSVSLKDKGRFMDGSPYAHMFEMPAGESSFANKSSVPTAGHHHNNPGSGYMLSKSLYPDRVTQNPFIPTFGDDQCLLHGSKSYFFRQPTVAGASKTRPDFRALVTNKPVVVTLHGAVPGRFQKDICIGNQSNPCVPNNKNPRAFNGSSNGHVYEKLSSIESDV
Chain of hERG (KCNH2) (Q12809 whole entry): as the sequence (Q12809 whole entry) above

With `O=C(CCc1ccccc1)N[C@H]1CC[C@H](c2ccc(O)c(F)c2)CC1`, the IC50 in data set [1] is 59 nM; in data set [2] (hek293), over 10000 nM.

In turn, `CS(=O)(=O)Nc1ccc([C@]2(O)CC[C@@H](NC(=O)CCc3ccccc3)CC2)cn1` yielded an IC50 in data set [1] of over 5000 nM.

With `Cc1cc([C@]2(O)CC[C@@H](NC(=O)CCc3ccccc3)CC2)ncc1O`, the IC50 in data set [1] stood at 116 nM.

Turning to `Cc1cc([C@H]2CC[C@H](NC(=O)CCc3ccccc3)CC2)ccc1O`, the IC50 in data set [1] was over 5000 nM.

In data set [1], `O=C(CCc1ccccc1)N[C@H]1CC[C@](O)(c2ccc3nc[nH]c3c2)CC1` yielded an IC50 of 4960 nM.

Turning to `O=C(CCc1ccccc1)N[C@H]1CC[C@](O)(c2ccc(O)cc2)CC1`, the values for the IC50 in data set [1] and in data set [2] were 19 nM and over 30000 nM, respectively. For the same compound, the concentration in solution in data set [3] (solubility) came to 20 µg/mL (≈ 58.9 µM).

Turning to `O=C1CC(Cc2ccccc2)CCN1CC(O)c1ccc(O)cc1` (stereo not drawn), the IC50 in data set [2] was over 30000 nM.

In the case of `C[C@@H]([C@@H](O)c1ccc(O)cc1)N1CCC(Cc2ccccc2)CC1` [(S)-IFENPRODIL], in data set [2], the IC50 is under 1000 nM.

Turning to `Nc1ccc([C@]2(O)CC[C@@H](NC(=O)CCc3ccccc3)CC2)cn1`, in data set [1], the half-inhibitory concentration (IC50) was over 5000 nM.

For the compound `Cc1cc([C@]2(O)CC[C@@H](NC(=O)CCc3ccccc3)CC2)ccc1O`, the IC50 was 189 nM in data set [1] and over 10000 nM in data set [2] (hek293). Also, the solubility in data set [3] was under 5 µg/mL.

With `O=C(N[C@H]1CC[C@H](c2ccc(O)cc2)CC1)C1Cc2ccccc2CN1` (stereo partly drawn), the IC50 in data set [1] was over 1000 nM; in data set [2], over 30000 nM. This compound gave a solubility in data set [3] of 18 µg/mL (≈ 51.4 µM).

Compound `O=C(CCc1ccccc1)N[C@H]1CC[C@](O)(c2c[nH]c3nc(=O)oc-3c2)CC1` gave an IC50 in data set [1] of 85 nM.

Regarding `CN(C)C(Cc1ccccc1)C(=O)N[C@H]1CC[C@H](c2ccc(O)cc2)CC1` (stereo partly drawn), the IC50 in data set [1] is over 1000 nM.

For the compound `Cn1c(CCC(=O)N[C@H]2CC[C@H](c3ccc(O)cc3)CC2)nc2ccccc21`, the IC50 in data set [1] was over 1000 nM.

In data set [1], `Cc1cc(O)ccc1[C@H]1CC[C@H](NC(=O)CCc2ccccc2)CC1` yielded an IC50 of 722 nM.

With `O=C(CCc1ccccc1)N[C@H]1CC[C@](O)(c2c[nH]cn2)CC1`, the IC50 in data set [1] is over 5000 nM.

In the case of `O=C(CCc1ccccc1)N[C@H]1CC[C@H](c2ccc(O)cc2)CC1`, the IC50 in data set [1] was 30 nM. This compound returned a solubility in data set [3] of under 5 µg/mL.

Turning to `O=C(CCc1ccccc1)N[C@H]1CC[C@](O)(c2ccc(O)c(F)c2)CC1`, the IC50 in data set [1] amounted to 13 nM. Also, the solubility in data set [3] came to 17 µg/mL (≈ 47.6 µM).

Consider `O=C(CCc1cccnc1)N[C@H]1CC[C@H](c2ccc(O)cc2)CC1`, for which the IC50 in data set [1] is over 1000 nM.

On to `O=C1CCc2cc([C@@H](O)CN3CCC(O)(c4cccc(F)c4)CC3)ccc2N1`, for which the half-maximal inhibitory concentration (IC50) in data set [2] stood at 1100 nM.

Consider `O=C(CCc1ccccn1)N[C@H]1CC[C@H](c2ccc(O)cc2)CC1`, for which the 50% inhibitory concentration (IC50) in data set [1] was 856 nM; in data set [2], over 30000 nM.

As to `Cc1cnc(CCC(=O)N[C@H]2CC[C@H](c3ccc(O)cc3)CC2)s1`, the IC50 in data set [1] was 96 nM; in data set [2] it was over 10000 nM.

`O=C(CCc1ccccc1)N[C@H]1CC[C@](O)(c2ccc(O)cn2)CC1`: the IC50 in data set [1] was 10 nM; in data set [2] it was over 30000 nM. This compound returned a solubility in data set [3] of 130 µg/mL (≈ 382 µM). The compound further gave an MED in data set [4] of 10 mg/kg. For the same compound, the half-life in data set [5] is over 1 h. Besides, the bioavailability in data set [6] is 27%. The compound also gave an inhibition at 30 µM in data set [7] of 9%.

On to `O=C(CCc1ccccc1)N[C@H]1CC[C@](O)(c2cn[nH]c2)CC1`, for which the IC50 in data set [1] came out at 2440 nM.

For the compound `Cc1cc(O)ccc1[C@]1(O)CC[C@@H](NC(=O)CCc2ccccc2)CC1`, the IC50 was 25 nM in data set [1] and over 10000 nM in data set [2] (hek293).
